These results are taken from PubChem BioAssay (NCI).

Where “and” joins values, the source holds several entries; their conditions need not be identical. Equal values may be shown once.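 How tested: cells in 96-well plates exposed to compound for 48 hours at five concentrations. GI50 is the concentration that inhibits growth by half. TGI is the concentration that stops growth completely.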

Some test systems named below: MOLT-4 leukemia; DLD-1 colon; DU-145 prostate; EKVX NSCLC; HOP-18 NSCLC; SNB-78 CNS; SR leukemia; OVCAR-4 ovarian; SN12K1 renal; MALME-3M melanoma; NCI-H522 lung; MDA-N; SNB-19 CNS; OVCAR-8 ovarian; T-47D breast; A498 renal.
Holding throughout (experiment): growth of human tumour cells (NCI), 48 h

In the case of `C/C(=C\COc1ccc2ccc(=O)oc2c1)C1=CC(=O)C(C)(C)O1`, the GI50 is 3.25 µM with MOLT-4 leukemia; 4.9 µM with EKVX NSCLC; 4.3 µM in the experiment on OVCAR-4 ovarian; 2.37 µM and 0.804 µM in the experiment on NCI-H522 lung; 2.94 µM in the experiment on SNB-19 CNS; 2.18 µM in the experiment with OVCAR-8 ovarian. The GI50 in the experiment with A498 renal is 2.79 µM. Moreover, the TGI is 15 µM and 20.2 µM in the experiment with MOLT-4 leukemia; 30.8 µM in the experiment on DLD-1 colon; 7.34 µM in the experiment with DU-145 prostate; 28.2 µM and 30.6 µM in the experiment on EKVX NSCLC; 80.5 µM in the experiment with HOP-18 NSCLC; 61.3 µM with SNB-78 CNS. For the same compound, the TGI is 4.92 µM in the experiment on SR leukemia; 24.8 µM and 7.56 µM in the experiment on OVCAR-4 ovarian; 9.97 µM with SN12K1 renal; 25.6 µM and 14.8 µM in the experiment on MALME-3M melanoma; 7.73 µM and 3.76 µM in the experiment with NCI-H522 lung; 16 µM in the experiment on MDA-N. Also, the TGI in the experiment on SNB-19 CNS is 8.22 µM and 30.5 µM; with T-47D breast it was 30.6 µM; in the experiment with A498 renal it was 7.32 µM and 9.56 µM.
